Source: patent publication US11008297B2, “Bio-based, multi-aromatic compounds, and methods of making and using same” (ROWAN UNIVERSITY, priority 2017, dated 2021)

Assay: UV-VIS spectroscopy during titration with sodium hydroxide (pH dependence of absorbance)
Type: physicochemical
Details: 0.25 g in 100 mL deionized water, titrated with 0.1 M sodium hydroxide, UV-VIS at every 0.5 pH
Method: FIG. 8 comprises a graph illustrating maximum absorbance as a function of pH for a compound of the invention.
Triguaiacol (0.25 g, Example 4) was dissolved in 100 mL of deionized water. The mixture was titrated with 0.1 M sodium hydroxide solution. At every 0.5 pH, UV-VIS spectroscopy was performed on a portion of the mixture. The wavelength in the absorbance spectrum where the absorbance is at a maximum was measured.

## COc1cc(C(c2ccc(O)c(OC)c2)c2ccc(O)c(OC)c2)ccc1O [Triguaiacol, 4,4′,4″-methanetriyltris(2-methoxyphenol)]
  wavelength in the absorbance spectrum where the absorbance is at a maximum: decrease with increasing pH
